Measured values taken from patent US20140073637A1, “AMINO-SUBSTITUTED-ALKYLOXY-BENZO[E]PYRIDO[4,3-B]INDOLE DERIVATIVES AS NEW POTENT KINASE INHIBITORS” (INSTITUT CURIE, priority 2011, published 2014).
Where two headings read alike, the source gives them in different places.

Experiments:
Assay type in all cases: cell-based
[1] = system: HeLa cells stably expressing aurora B-GFP; experiment: Time-lapse of HeLa cells expressing aurora B-GFP; settings: 0.5 μM; continuous imaging
Method: FIG. 7A: Cells treated by either DMSO (CO: control) or C1 (0.5 μM) or C14 (0.5 μM) were continuously imaged with a ZEISS confocal microscope. […] Mitotic cells were found fluorescent and GFP was concentrated on the centromeres. In control conditions, centromere aligned at metaphase and upon anaphase ongoing fluorescence concentrates on the spindle and finally in the midbody (A, CO). The shape of the cells is visualized by white dotted lines.
HeLa cells expressing aurora B-GFP were treated by either C14 (0.5 μM) or C1 (0.5 μM) or DMSO (control; Co). Mitotic cells were continuously imaged under controlled conditions (37° C. and 5% CO2). The localisation of aurora B-GFP is represented and the elapsed time indicated in the three conditions (FIG. 7A). Control cells divided normally; Aurora B presented on the centromeres (FIG. 7A, CO, To and 10 min) was then transferred on microtubules (FIG. 7A, CO 45 min) and finally concentrated in the mid body (FIG. 7A, CO, 1 h). […] These cells escaped from mitosis without anaphase and gave rise to micronuclei (FIG. 7B, C1). In the presence of C14 (0.5 μM), chromosome aligned normally (FIG. 7B, C14 To) and aurora B-GFP was found accumulated in the mid-zone (FIG. 7B, C14, 18 min, 40 min and 2 h). Finally, these cells spread again without division (FIG. 7B, C14 4 h). […]

HeLa cells = experiment: Cell viability / antiproliferative assay; settings: Homo sapiens, HeLa
Description: Antiproliferative assays with HeLa cells have been performed with the preferred compounds and compared to the C1 and C2. The average of three independent experiments is shown. IC50 obtained with C1 and C2 were previously reported in Hoang et al, 2009, and are indicated for comparison. The lateral chain of each molecule is recalled, knowing that all the molecules have an oxo group at position 11. IC50 are indicated, i.e. the concentration that induced 50% death.
(§1) H358, H322 (lung cancer cells), U373 (glioblastomes) and HeLa ([…]) were grown in DMEM (1.5 g/L glucose) whereas HL60 (human myeloid cell line) cells were in RPMI 1640. U2OS (a human osteosarcoma cell line) cells were cultured in McCoy's Medium 5 A and liver cells (SK Hep 1) in DMEM (4 g/L glucose, (Gibco-Invitrogen). Media (Gibco-Invitrogen), were supplemented with 10% heat-inactivated foetal bovine serum (Gibco-Invitrogen), L-glutamine (2 mM), penicillin (100 UI/ml) and streptomycin (100 μg/ml).
(§2) Cell proliferation assays were conducted in 96 well culture plates. Assays were run in triplicate. Cell viability was estimated upon 72 h of treatment with varying concentrations of compound by addition of CellTiter 96Queous one Solution Reagent (Promega) directly to culture wells under conditions defined by the manufacturer.

Aurora B = Aurora B (Homo sapiens, UniProt Q96GD4); experiment: Aurora B inhibition in cells: Histone H3 Ser10 phosphorylation by western blotting and immunofluorescence; design: endogenous in cells; host or cells: U2OS (human osteosarcoma); HeLa also used for the maleate salts; key to Aurora B inhibition: +++: very efficient inhibition; −: no inhibition; settings: for Aurora B inhibition in cellulo (Histone H3 phosphorylation, in words): U2OS mitotic extracts, 1 μM overnight, western blotting (FIG. 3); for Aurora B inhibition: cells, Histone H3 Ser10 phosphorylation, western blotting and immunofluorescence, compounds 1 μM
Method: Actin is used as control of quantity. Cells were incubated overnight in the presence of either C1, or C2 or CH21 or C14 or DMSO(C: control). All compounds were tested at 1 μM. Proteins were detected by western blotting.
Cells were incubated with the different molecules and Aurora B inhibition is estimated by western blotting (WB) and immuno fluorescent experiments. Histone H3 phosphorylated on Ser10 is used as a marker of Aurora B kinase activity and actin as an internal control. Each WB signal is compared to the control in the absence of compound. The efficiency estimated by WB is indicated by +++: very efficient inhibition to −: no inhibition. Immunofluorescent labelling of a mitotic cell by Histone H3 illustrates Aurora B kinase activity. However immunofluorescence is less sensitive than WB. Active molecules are underlined by a square and the intensity of the line indicates the efficiency of inhibition.
FIG. 10A: Immunofluorescence with phospho-Ser10-Histone H3 antibodies. Either the percentage of positive phospho-Ser10-Histone H3 is indicated or a representative mitosis shown. […] Immunofluorescent assays were realized with a specific phospho-antibody and mitotic U2OS cells are recognized by their DNA content stained with Hoechst. On the right, a representative cell or the percentage of H3-S10-P labelled mitosis.
FIG. 10B: Immunoblotting analysis of histone H3 phosphorylation. U2OS cells were incubated overnight with Nocodazole (50 nM) in the presence of either DMSO (Co) or Compounds (1 μM). Cells were then collected and lyzed. Identical amounts of the lyzed cell samples were run on 18% acrylamide gel containing SDS.
FIGS. 11B and 11C: Immunoblotting analysis of histone H3 phosphorylation. U2OS and HeLa cells were incubated overnight with Nocodazole (50 nM) in the presence of either DMSO (Co) or Compounds (1 μM). Cells were then collected and lyzed. Identical amounts of the lyzed cell samples were run on 18% acrylamide gel containing SDS.
Cells were incubated with the different molecules and Aurora B inhibition is estimated by western blotting and immunofluorescent experiments. Histone H3 phosphorylated on Ser10 is used as a marker of Aurora B kinase activity and actin as an internal control. Results are represented in FIGS. 4 and 10 and Table 3.
Cells were treated by compounds, harvested and lyzed in 9M urea then supplemented with Laemmli sample buffer. Cell extracts were subjected to SDS-PAGE and transferred to nitrocellulose filter (GE Healthcare). After blocking with 5% non-fat milk in PBS for at least 1 hour, the membranes were incubated with the primary antibodies. The following antibodies were used: phospho-Histone H3 Ser10 (1:2000, Upstate Biotechnology), anti LAST1 (Cell signalling), anti Aurora B (epitomics) and anti alpha-tubulin (Sigma) Anti-rabbit horseradish peroxidase (1:5000, GE Healthcare) was used as secondary antibodies. Bands were visualized by ECL technique (Amersham Bioscience).
Cells were seeded on glass coverslips and treated by compounds (1 μM) overnight. After treatment, cells were fixed in 4% formaldhehyde at 37° C. for 15 minutes, then permeabilized for 5 minutes with Triton X-100 in PBS.

SkHep1 = experiment: Cell viability test (CellTiter 96 AQueous One Solution); settings: Homo sapiens, SK-HEP1; SkHep1 (Liver cells); 72 h of treatment; read-out: IC50 (cell line viability)
Method: as §1, §2

[2] = 72 h, HeLa (Cervix), 72 h of treatment, read-out: IC50 (cell line viability)

Chain of Aurora B (Q96GD4 whole entry): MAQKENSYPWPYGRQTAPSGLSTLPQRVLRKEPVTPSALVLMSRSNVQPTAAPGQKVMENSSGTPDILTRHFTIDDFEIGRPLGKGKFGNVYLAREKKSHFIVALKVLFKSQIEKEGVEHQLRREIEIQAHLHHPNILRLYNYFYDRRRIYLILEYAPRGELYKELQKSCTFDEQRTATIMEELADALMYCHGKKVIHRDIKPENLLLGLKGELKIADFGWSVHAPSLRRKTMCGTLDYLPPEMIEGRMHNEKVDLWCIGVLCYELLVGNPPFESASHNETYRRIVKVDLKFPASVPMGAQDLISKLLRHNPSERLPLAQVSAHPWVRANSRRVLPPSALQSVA

Structure (SMILES) | impairment of mitosis (in words) [1] | IC50 (HeLa cells; [2]) [nM] | Aurora B inhibition in cellulo (Histone H3 phosphorylation, in words) (Aurora B) | Aurora B inhibition (Aurora B) | IC50 (SkHep1) [nM] | IC50 (HeLa cells; HeLa cells, average of three independent experiments, concentration that induced 50% death, read-out: IC50 (in nM), antiproliferative assay) [nM]
CCc1c[nH]c(=O)c2c1[nH]c1ccc3cc(OC)ccc3c12 [Compound C1, reference compound] | prevented anaphase ongoing | 960 | inhibit efficiently | +++ |  | 
Cc1cncc2c1[nH]c1ccc3cc(OCCN(C)C)ccc3c12 [CH21, 3-(2-N,N-dimethylaminoethyloxy)-8-methyl-7H-benzo[e]pyrido(4,3-b)indole] |  | 350 | no effect | − | 450 | 
Cc1c[nH]c(=O)c2c1[nH]c1ccc3cc(OCCN(C)C)ccc3c12 [Compound C14, 3-(2-N,N-Dimethylaminoethoxy)-8-methyl-7H,10H-benzo[e]pyrido(4,3-b)indol-11-one] | affected cytokinesis | 110 | inhibit efficiently | +++ | 2000 | 170 ± 82
